Experiment: In vitro disulfide cleavage and immolation by incubation with cysteine or glutathione (LC/MS)
Type: physicochemical
Details: for Percentage of all products: pH 7.0, 37° C.
Method: In a first phase of the experiment, disulfide cleavage and immolation by incubation with cysteine and glutathione—with the thiol concentrations mimic those in plasma and cancer cells—was investigated using unconjugated small molecule model systems with para-nitro-pyridyl disulfide-containing linker drug analogs 1, 2 and 11 below. In particular, cleavage and immolation was evaluated in vitro by incubation at […] with cysteine ([…] or 200 μM) or glutathione (GSH, 4 mM) in 100 mM Tris buffer pH 7.0 containing 5% methanol at 37° C. Aliquots were taken at specified time points and the samples were analyzed by LC/MS on Sciex TripleTOF 5600 on a Hypersil Gold C18 column (100×2.1, […], Thermo Scientific). The column was eluted by a gradient of buffer A (0.1% formic acid in 10 mM ammonium acetate) to buffer B (0.1% formic acid in 10 mM ammonium acetate in 90% acetonitrile), 5% B 0-0.5 min, 5-25% B 0.5-8 min, 25-75% B 8-13 min, and 75-95% B 13-13.5 min, 95% B 13.5-14.5 min, 95-5% B 14.5-15 min at 0.4 mL/min. Under these conditions, para-nitropyridyl thiol was eluted at 5.3 min. All products (compounds 1, 2, 11, 3a, 3b, 4a, 4b, 12a, 12 b, 6, 7, 13 and 8) were separated and characterized by LC/MS/MS in a positive ESI ion mode. All analytes had the protonated molecular MH^+ as the major species with little source fragmentation. Full scan accurate mass peak areas were used to estimate relative abundance of each component and the disappearance of 1, 2, and 11 estimated relative full scan peak areas was consistent with that estimated based on the relative abundance compared to time 0 by MS or UV. The results are reported in Table 15 below and the analytical results are presented in Table 16 below where “Cmpd” refers to compound, “RT” refers to retention time in minutes, and “Calc. Mass” refers to calculated mass. The relative abundance of disulfide cleavage and immolation products over time were evaluated and are disclosed in FIGS. 12A to 12C, 13A to 13C, 14A to 14C and 15A to 15C where the products were monitored by LC/MS from incubations of linker drugs 1, 2, and 11 at pH 7.0 and 37° C. in the presence of: 0.2 mM cysteine (FIGS. 12A, 12B and 12C); 0.03 mM cysteine (FIGS. 13A, 13B and 13C); 4 mM glutathione (FIGS. 14A, 14B and 14C); and 0.03 mM glutathione (FIGS. 15A, 15B and 15C). In FIGS. 12A to 12C, 13A to 13C, 14A to 14C and 15A to 15C, compound reference numbers 1, 2, 3a, 3b, 4a, 4b, 6, 7, 8, 11, 12a, 12b and 13 correspond to the structures below.

SMILES: C=C1CC2C=Nc3cc(OCCCCCOc4cc5c(cc4OC)C(=O)N4CC(=C)CC4C(O)N5C(=O)OCC(C)SSc4ccc([N+](=O)[O-])cn4)c(OC)cc3C(=O)N2C1 (stereo not shown) [Compound 1]
- Percentage of all products (30 μM cysteine, 1 h): 10.6%
- Percentage of all products (30 μM cysteine, 4 h): 7.9%
- Percentage of all products (30 μM cysteine, 24 h): 4.5%
- Percentage of all products (200 μM cysteine, 1 h): 2.8%
- Percentage of all products (200 μM cysteine, 4 h): 1.0%
- Percentage of all products (200 μM cysteine, 24 h): 0%
- Percentage of all products (4 mM GSH, 1 h): 9.1%
- Percentage of all products (4 mM GSH, 4 h): 0.9%
- Percentage of all products (4 mM GSH, 24 h): 0.1%

SMILES: C=C1C[C@H]2C=Nc3cc(OCCCCCOc4cc5c(cc4OC)C(=O)N4CC(=C)C[C@H]4C(O)N5C(=O)OCC4(SSc5ccc([N+](=O)[O-])cn5)CC4)c(OC)cc3C(=O)N2C1 (stereo partly shown) [Compound 2]
- Percentage of all products (30 μM cysteine, 1 h): 21.1%
- Percentage of all products (30 μM cysteine, 4 h): 19.1%
- Percentage of all products (30 μM cysteine, 24 h): 12.0%
- Percentage of all products (200 μM cysteine, 1 h): 16.1%
- Percentage of all products (200 μM cysteine, 4 h): 10.8%
- Percentage of all products (200 μM cysteine, 24 h): 7.0%
- Percentage of all products (4 mM GSH, 1 h): 17.9%
- Percentage of all products (4 mM GSH, 4 h): 9.0%
- Percentage of all products (4 mM GSH, 24 h): 4.3%

SMILES: C=C1CC2C=Nc3cc(OCCCCCOc4cc5c(cc4OC)C(=O)N4CC(=C)CC4C(O)N5C(=O)OCC(C)SSCC(N)C(=O)O)c(OC)cc3C(=O)N2C1 (stereo not shown) [Compound 3a]
- Percentage of all products (30 μM cysteine, 1 h): 80.1%
- Percentage of all products (30 μM cysteine, 4 h): 79.9%
- Percentage of all products (30 μM cysteine, 24 h): 75.0%
- Percentage of all products (200 μM cysteine, 1 h): 5.6%
- Percentage of all products (200 μM cysteine, 4 h): 1.9%
- Percentage of all products (200 μM cysteine, 24 h): 0%

SMILES: C=C1CC2C=Nc3cc(OCCCCCOc4cc5c(cc4OC)C(=O)N4CC(=C)CC4C(O)N5C(=O)OCC(C)SSCC(NC(=O)CCC(N)C(=O)O)C(=O)NCC(=O)O)c(OC)cc3C(=O)N2C1 (stereo not shown) [Compound 3b]
- Percentage of all products (4 mM GSH, 1 h): 0.3%
- Percentage of all products (4 mM GSH, 4 h): 0%
- Percentage of all products (4 mM GSH, 24 h): 0%

SMILES: C=C1C[C@H]2C=Nc3cc(OCCCCCOc4cc5c(cc4OC)C(=O)N4CC(=C)C[C@H]4C(O)N5C(=O)OCC4(SSC[C@H](N)C(=O)O)CC4)c(OC)cc3C(=O)N2C1 (stereo partly shown) [Compound 4a]
- Percentage of all products (30 μM cysteine, 1 h): 73.7%
- Percentage of all products (30 μM cysteine, 4 h): 71.1%
- Percentage of all products (30 μM cysteine, 24 h): 75.9%
- Percentage of all products (200 μM cysteine, 1 h): 39.1%
- Percentage of all products (200 μM cysteine, 4 h): 15.2%
- Percentage of all products (200 μM cysteine, 24 h): 3.2%

SMILES: C=C1C[C@H]2C=Nc3cc(OCCCCCOc4cc5c(cc4OC)C(=O)N4CC(=C)C[C@H]4C(O)N5C(=O)OCC4(SSC[C@H](NC(=O)CC[C@H](N)C(=O)O)C(=O)NCC(=O)O)CC4)c(OC)cc3C(=O)N2C1 (stereo partly shown) [Compound 4b]
- Percentage of all products (4 mM GSH, 1 h): 1.1%
- Percentage of all products (4 mM GSH, 4 h): 0.4%
- Percentage of all products (4 mM GSH, 24 h): 1.0%

SMILES: C=C1CC2C=Nc3cc(OCCCCCOc4cc5c(cc4OC)C(=O)N4CC(=C)CC4C(O)N5C(=O)OCC(C)S)c(OC)cc3C(=O)N2C1 (stereo not shown) [Compound 6]
- Percentage of all products (30 μM cysteine, 1 h): 2.5%
- Percentage of all products (30 μM cysteine, 4 h): 1.7%
- Percentage of all products (30 μM cysteine, 24 h): 0.5%
- Percentage of all products (200 μM cysteine, 1 h): 7.8%
- Percentage of all products (200 μM cysteine, 4 h): 2.8%
- Percentage of all products (200 μM cysteine, 24 h): 0.1%
- Percentage of all products (4 mM GSH, 1 h): 2.6%
- Percentage of all products (4 mM GSH, 4 h): 0%
- Percentage of all products (4 mM GSH, 24 h): 0%
- Immolation of thiol intermediate (incubation with cysteine or glutathione): immolated quickly

SMILES: C=C1CC2C=Nc3cc(OCCCCCOc4cc5c(cc4OC)C(=O)N4CC(=C)CC4C=N5)c(OC)cc3C(=O)N2C1 (stereo not shown) [Compound 8, reference compound]
- Percentage of all products (30 μM cysteine, 1 h, listed as 1 to 8, compound 1 to 8 conversion): 6.8%
- Percentage of all products (30 μM cysteine, 1 h, listed as 2 to 8, compound 2 to 8 conversion): 0.1%
- Percentage of all products (30 μM cysteine, 1 h, listed as 11 to 8, compound 11 to 8 conversion): 3.6%
- Percentage of all products (30 μM cysteine, 4 h, listed as 1 to 8, compound 1 to 8 conversion): 10.5%
- Percentage of all products (30 μM cysteine, 4 h, listed as 2 to 8, compound 2 to 8 conversion): 0.1%
- Percentage of all products (30 μM cysteine, 4 h, listed as 11 to 8, compound 11 to 8 conversion): 8.7%
- Percentage of all products (30 μM cysteine, 24 h, listed as 1 to 8, compound 1 to 8 conversion): 20.5%
- Percentage of all products (30 μM cysteine, 24 h, listed as 2 to 8, compound 2 to 8 conversion): 0.5%
- Percentage of all products (30 μM cysteine, 24 h, listed as 11 to 8, compound 11 to 8 conversion): 27.6%
- Percentage of all products (200 μM cysteine, 1 h, listed as 1 to 8, compound 1 to 8 conversion): 83.7%
- Percentage of all products (200 μM cysteine, 1 h, listed as 2 to 8, compound 2 to 8 conversion): 0.1%
- Percentage of all products (200 μM cysteine, 1 h, listed as 11 to 8, compound 11 to 8 conversion): 68.8%
- Percentage of all products (200 μM cysteine, 4 h, listed as 1 to 8, compound 1 to 8 conversion): 94.4%
- Percentage of all products (200 μM cysteine, 4 h, listed as 2 to 8, compound 2 to 8 conversion): 0.3%
- Percentage of all products (200 μM cysteine, 4 h, listed as 11 to 8, compound 11 to 8 conversion): 83.2%
- Percentage of all products (200 μM cysteine, 24 h, listed as 1 to 8, compound 1 to 8 conversion): 99.9%
- Percentage of all products (200 μM cysteine, 24 h, listed as 2 to 8, compound 2 to 8 conversion): 2.5%
- Percentage of all products (200 μM cysteine, 24 h, listed as 11 to 8, compound 11 to 8 conversion): 97.7%
- Percentage of all products (4 mM GSH, 1 h, listed as 1 to 8, compound 1 to 8 conversion): 88.0%
- Percentage of all products (4 mM GSH, 1 h, listed as 2 to 8, compound 2 to 8 conversion): 0.2%
- Percentage of all products (4 mM GSH, 1 h, listed as 11 to 8, compound 11 to 8 conversion): 86.7%
- Percentage of all products (4 mM GSH, 4 h, listed as 1 to 8, compound 1 to 8 conversion): 98.5%
- Percentage of all products (4 mM GSH, 4 h, listed as 2 to 8, compound 2 to 8 conversion): 0.4%
- Percentage of all products (4 mM GSH, 4 h, listed as 11 to 8, compound 11 to 8 conversion): 94.9%
- Percentage of all products (4 mM GSH, 24 h, listed as 1 to 8, compound 1 to 8 conversion): 99.9%
- Percentage of all products (4 mM GSH, 24 h, listed as 2 to 8, compound 2 to 8 conversion): 2.3%
- Percentage of all products (4 mM GSH, 24 h, listed as 11 to 8, compound 11 to 8 conversion): 99.3%

SMILES: C=C1C[C@H]2C=Nc3cc(OCCCCCOc4cc5c(cc4OC)C(=O)N4CC(=C)C[C@H]4C(O)N5C(=O)OCC4(SSc5ccc([N+](=O)[O-])cn5)CCC4)c(OC)cc3C(=O)N2C1 (stereo partly shown) [Compound 11]
- Percentage of all products (30 μM cysteine, 1 h): 21.2%
- Percentage of all products (30 μM cysteine, 4 h): 15.5%
- Percentage of all products (30 μM cysteine, 24 h): 4.8%
- Percentage of all products (200 μM cysteine, 1 h): 6.5%
- Percentage of all products (200 μM cysteine, 4 h): 3.6%
- Percentage of all products (200 μM cysteine, 24 h): 1.5%
- Percentage of all products (4 mM GSH, 1 h): 9.1%
- Percentage of all products (4 mM GSH, 4 h): 4.5%
- Percentage of all products (4 mM GSH, 24 h): 0.7%

SMILES: C=C1C[C@H]2C=Nc3cc(OCCCCCOc4cc5c(cc4OC)C(=O)N4CC(=C)C[C@H]4C(O)N5C(=O)OCC4(SSC[C@H](N)C(=O)O)CCC4)c(OC)cc3C(=O)N2C1 (stereo partly shown) [Compound 12a]
- Percentage of all products (30 μM cysteine, 1 h): 73.5%
- Percentage of all products (30 μM cysteine, 4 h): 74.8%
- Percentage of all products (30 μM cysteine, 24 h): 66.7%
- Percentage of all products (200 μM cysteine, 1 h): 21.5%
- Percentage of all products (200 μM cysteine, 4 h): 11.6%
- Percentage of all products (200 μM cysteine, 24 h): 0.8%

SMILES: C=C1C[C@H]2C=Nc3cc(OCCCCCOc4cc5c(cc4OC)C(=O)N4CC(=C)C[C@H]4C(O)N5C(=O)OCC4(SSC[C@H](NC(=O)CC[C@H](N)C(=O)O)C(=O)NCC(=O)O)CCC4)c(OC)cc3C(=O)N2C1 (stereo partly shown) [Compound 12b]
- Percentage of all products (4 mM GSH, 1 h): 1.6%
- Percentage of all products (4 mM GSH, 4 h): 0.2%
- Percentage of all products (4 mM GSH, 24 h): 0%

— patent US10729738B2, “Hindered disulfide drug conjugates” (priority 2015, dated 2020)
